Literature values as cited in patent US6183121A, “Hepatitis C virus helicase crystals and coordinates that define helicase binding pockets” (priority 1998, dated 2001).

Target: UvrD helicase, mutation of a conserved arginine in motif IV (Escherichia coli, UniProt P03018, R284A)
Conditions: mutant versus unmutated UvrD; M. C. Hall et al., J. Biol. Chem., 272 (1997)

Chain of UvrD helicase, mutation of a conserved arginine in motif IV (P03018 whole entry R284A): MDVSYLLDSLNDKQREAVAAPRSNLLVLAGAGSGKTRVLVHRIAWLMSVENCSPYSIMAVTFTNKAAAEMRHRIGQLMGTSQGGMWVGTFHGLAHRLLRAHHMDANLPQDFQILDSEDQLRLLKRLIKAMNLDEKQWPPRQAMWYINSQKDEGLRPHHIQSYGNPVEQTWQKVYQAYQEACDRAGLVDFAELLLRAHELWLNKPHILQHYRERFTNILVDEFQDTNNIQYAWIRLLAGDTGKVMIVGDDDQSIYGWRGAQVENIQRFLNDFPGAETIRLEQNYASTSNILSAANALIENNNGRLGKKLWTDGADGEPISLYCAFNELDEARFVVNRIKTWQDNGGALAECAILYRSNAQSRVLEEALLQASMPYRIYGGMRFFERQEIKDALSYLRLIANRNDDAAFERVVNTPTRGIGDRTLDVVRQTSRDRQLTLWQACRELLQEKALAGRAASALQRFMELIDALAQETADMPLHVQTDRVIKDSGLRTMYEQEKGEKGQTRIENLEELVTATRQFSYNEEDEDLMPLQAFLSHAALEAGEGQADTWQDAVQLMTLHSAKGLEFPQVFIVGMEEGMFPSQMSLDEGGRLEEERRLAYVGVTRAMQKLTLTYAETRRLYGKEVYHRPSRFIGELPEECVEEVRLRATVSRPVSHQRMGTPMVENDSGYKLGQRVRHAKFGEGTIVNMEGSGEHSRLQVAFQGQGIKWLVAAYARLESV

Nc1ncnc2c1ncn2[C@@H]1O[C@H](COP(=O)(O)OP(=O)(O)OP(=O)(O)O)[C@@H](O)[C@H]1O [ATP]
increase of the ATP Km: 37 fold
